The text below walks through data of ChEMBL document CHEMBL1201862, “PubChem BioAssay data set” (2004).

The target in the test is T1, Sentrin-specific protease 7 (Homo sapiens, UniProt Q9BQF6).
T1 sequence (Q9BQF6 whole entry): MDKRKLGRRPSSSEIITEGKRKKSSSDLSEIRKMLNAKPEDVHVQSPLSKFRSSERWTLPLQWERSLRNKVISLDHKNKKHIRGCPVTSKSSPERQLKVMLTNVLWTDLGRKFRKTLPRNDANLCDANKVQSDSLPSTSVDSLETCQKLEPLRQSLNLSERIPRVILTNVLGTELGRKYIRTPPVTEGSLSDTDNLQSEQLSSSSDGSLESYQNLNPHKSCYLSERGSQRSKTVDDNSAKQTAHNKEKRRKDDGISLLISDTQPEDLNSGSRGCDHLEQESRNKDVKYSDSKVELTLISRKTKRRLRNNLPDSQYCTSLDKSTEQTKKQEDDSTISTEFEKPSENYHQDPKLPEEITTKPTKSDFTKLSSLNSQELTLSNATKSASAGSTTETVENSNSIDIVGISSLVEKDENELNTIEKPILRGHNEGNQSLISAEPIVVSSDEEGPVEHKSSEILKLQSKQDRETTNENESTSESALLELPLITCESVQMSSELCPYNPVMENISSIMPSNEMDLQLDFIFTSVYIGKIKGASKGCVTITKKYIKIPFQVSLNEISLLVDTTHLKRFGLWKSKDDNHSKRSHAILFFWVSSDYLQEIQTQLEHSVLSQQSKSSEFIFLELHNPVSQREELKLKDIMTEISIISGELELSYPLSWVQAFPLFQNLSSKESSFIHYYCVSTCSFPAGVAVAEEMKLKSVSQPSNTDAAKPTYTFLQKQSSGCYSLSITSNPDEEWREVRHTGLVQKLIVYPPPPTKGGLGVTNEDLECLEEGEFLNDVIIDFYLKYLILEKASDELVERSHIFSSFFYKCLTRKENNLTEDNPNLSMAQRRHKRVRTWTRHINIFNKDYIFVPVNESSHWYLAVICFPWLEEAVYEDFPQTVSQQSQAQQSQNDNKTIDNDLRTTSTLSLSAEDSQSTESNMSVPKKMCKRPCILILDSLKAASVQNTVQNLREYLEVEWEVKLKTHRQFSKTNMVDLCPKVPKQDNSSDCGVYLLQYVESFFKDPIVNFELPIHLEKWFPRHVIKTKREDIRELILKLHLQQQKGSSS
As to the kind of experiment: inhibition of human SENP7 cleavage activity – biochemical, luminescence, SAR follow-up (AID 504497). Format: functional.

Activity calls are given as the source filed them. No stated cut-off is given here; in the data, actives have a measured IC50 and inactives only a lower limit.

What is called IC50 is the concentration needed to halve the response being measured. Turning to `COc1ccc(C(N)c2nccc3cc(OC)c(OC)cc23)cc1OC` (stereo unspecified), the IC50 was > 99 µM (inactive).
